The values that follow come from EP4678638A1, “NEW E3 UBIQUITIN LIGASE LIGAND, PROTEIN DEGRADATION AGENT AND USE THEREOF” (priority 2023, dated 2024).

The test system of one experiment is TMD8. In words: CCK-8 proliferation, TMD8. The class given is cell-based. As to conditions: Homo sapiens, read-out: Inhibitory activity (IC50) on tumor cell proliferation, TMD8. The method, then: (§1) The tumor cells used herein were cultured in a cell culture medium listed in table A1 at 37°C in an incubator with 5% CO2. Prior to experimentation, all cell lines used were correctly identified by STR profiling, and tested negative for mycoplasma contamination using a mycoplasma detection kit through routine screenings. Table A1. Tumor cells and cell culture medium used in the present disclosure
(§2) IC50 values of the compounds of the present disclosure (including the compounds in Table 1, and compounds of examples) were measured using the Meilun Cell Counting Kit-8 kit from Dalian Meilun Biotech Co., Ltd. Assay details are as follows: tumor cells were seeded in a 96-well plate at a density listed in Table A2. After 24h, 100 µL of the inoculated cells were treated with 0.5µL of the compounds of the present disclosure (including the compounds in Tables 1 and 2, and compounds of examples) at 10 different successively decreasing concentrations (starting at the highest concentration of 10µM; 5-fold serial dilutions). After the cells were treated with the compounds of the present disclosure for a period of time, the cell viability detection reagent was added to the culture medium for cell viability assessment according to the instructions provided with the CCK-8 kit. […] The growth inhibition of the compounds of the present disclosure on cells was plotted by Prism Graphpad software, and the IC50 values of the compounds of the present disclosure were calculated therefrom. […] Seeding protocol and treatment time for tumor cells

The subject of a further experiment is SU-DHL-6. The experiment can be described thus: CCK-8 proliferation, SU-DHL-6. The class given is cell-based. As to conditions: Homo sapiens, read-out: Inhibitory activity (IC50) on tumor cell proliferation, SU-DHL-6. As for the experimental part: as §1, §2
Experiment [1] addresses T1, human Cereblon WT GST-tagged protein (Homo sapiens, UniProt Q96SW2).
T1 construct: purchased CISBIO 64BDCRBNPEH
In words: CRBN binding, HTRF (CEREBLON BINDING kit). The settings on record: for inhibition at 0.5 µM: read-out: Inhibition rate (%) at 0.5µM; for inhibition at 2 µM: read-out: Inhibition rate (%) at 2 µM. Summed up: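 Competitive HTRF: GST-tagged human WT Cereblon mixed with compound, Thalidomide-Re tracer and GST Eu antibody, incubated 3 h at room temperature. Signals read at 620 and 665 nm.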
For orientation: In TR-FRET formats the signal depends on donor and acceptor labels being close together.

Another experiment has as its system LNcap. In words: CCK-8 proliferation, LNcap. The class given is cell-based. As to conditions: Homo sapiens, LNCaP; CCK-8; 96 hours; read-out: Inhibitory activity (IC50) on tumor cell proliferation, Lncap. In outline:
(§3)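 CCK-8 viability readout; IC50 from growth-inhibition curve fitting. Cells plated, dosed 24h later with a 10-point series, top 10µM, 5-fold steps. Culture at 37°C, 5% CO2.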

The subject of another experiment is LS174T. The experiment can be described thus: CCK-8 proliferation, LS174T. It is filed as cell-based. The settings on record: Homo sapiens, read-out: Inhibitory activity (IC50) on tumor cell proliferation, LS174T. The method, then: IC50 values of the compounds of the present disclosure (including the compounds in Table 1, and compounds of examples) were measured using the Meilun Cell Counting Kit-8 kit from Dalian Meilun Biotech Co., Ltd. Assay details are as follows: tumor cells were seeded in a 96-well plate at a density listed in Table A2. After 24h, 100 µL of the inoculated cells were treated with 0.5µL of the compounds of the present disclosure (including the compounds in Tables 1 and 2, and compounds of examples) at 10 different successively decreasing concentrations (starting at the highest concentration of 10µM; 5-fold serial dilutions). After the cells were treated with the compounds of the present disclosure for a period of time, the cell viability detection reagent was added to the culture medium for cell viability assessment according to the instructions provided with the CCK-8 kit. […] The growth inhibition of the compounds of the present disclosure on cells was plotted by Prism Graphpad software, and the IC50 values of the compounds of the present disclosure were calculated therefrom. [drawing 1519] Table A2. Seeding protocol and treatment time for tumor cells

Another experiment deals with CCRF-CEM. The experiment can be described thus: CCK-8 proliferation, CCRF-CEM. The class given is cell-based, Human. As to conditions: Homo sapiens, CCRF-CEM; CCK-8; 96 hours; read-out: Inhibitory activity (IC50) on tumor cell proliferation, CCRF-CEM. In outline: as §3
The next experiment concerns THP-1. The experiment can be described thus: CCK-8 proliferation, THP-1. The class given is cell-based. The settings on record: Homo sapiens, 72 hours, read-out: Inhibitory activity (IC50) on tumor cell proliferation, THP-1. The method, then: as §1, §2
The subject of another experiment is SW620. In words: CCK-8 proliferation, SW620. It is filed as cell-based. The settings on record: Homo sapiens, read-out: Inhibitory activity (IC50) on tumor cell proliferation, SW620. In outline:
as §3

The subject of a further experiment is Jurkat. In words: CCK-8 proliferation, Jurkat. The class given is cell-based, Human. The settings on record: Homo sapiens, Jurkat; CCK-8; 96 hours; read-out: Inhibitory activity (IC50) on tumor cell proliferation, Jurkat. In outline:
as §3

Another experiment concerns H2228. In words: CCK-8 proliferation, NCI-H2228 (H2228). It is filed as cell-based. The settings on record: Homo sapiens, NCI-H2228, 96 h, read-out: Inhibitory activity (IC50) on tumor cell proliferation, H2228. Summed up: as §3
A further experiment concerns MM.1R. In words: CCK-8 proliferation, MM.1R. The class given is cell-based. The settings on record: 72 h, read-out: Inhibitory activity (IC50) on tumor cell proliferation, MM.1R. In outline: as §3
Another experiment relates to PC-9. The experiment can be described thus: CCK-8 proliferation, PC-9. It is filed as cell-based, Human. The settings on record: Homo sapiens, PC-9, 96 h, read-out: Inhibitory activity (IC50) on tumor cell proliferation, PC-9. Summed up:
as §3

The subject of another experiment is H1975. In words: CCK-8 proliferation, NCI-H1975 (H1975). It is filed as cell-based, Human. As to conditions: Homo sapiens, NCI-H1975, 96 h, read-out: Inhibitory activity (IC50) on tumor cell proliferation, H1975. Summed up:
as §3

Like-named read-outs stand apart in the source and are kept apart here. Some results are limits rather than exact numbers.

T1 sequence (Q96SW2 whole entry): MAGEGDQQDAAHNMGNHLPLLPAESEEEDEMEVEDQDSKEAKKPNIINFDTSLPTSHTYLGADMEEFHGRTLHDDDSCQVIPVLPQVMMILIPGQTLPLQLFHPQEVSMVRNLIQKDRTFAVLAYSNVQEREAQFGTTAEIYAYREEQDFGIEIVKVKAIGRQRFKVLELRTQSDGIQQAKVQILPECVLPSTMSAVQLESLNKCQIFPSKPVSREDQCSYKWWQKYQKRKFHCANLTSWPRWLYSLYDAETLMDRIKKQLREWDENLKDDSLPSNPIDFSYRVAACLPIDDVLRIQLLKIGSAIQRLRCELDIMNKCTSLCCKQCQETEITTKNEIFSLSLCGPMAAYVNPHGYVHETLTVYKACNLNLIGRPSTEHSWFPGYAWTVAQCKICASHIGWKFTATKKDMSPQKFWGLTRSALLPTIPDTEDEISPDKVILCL

As a reminder, the inhibition is the percentage by which the read-out fell short of the control. Consider `Nc1ncnc2c1c(-c1ccc(Oc3ccccc3)cc1)nn2C1CCN(Cc2ccc(C3CCC(=O)NC3=O)cc2)CC1` (stereo not shown) [GT-03507, 3-(4-((4-(4-amino-3-(4-phenoxyphenyl)-1H-pyrazolo[3,4-d]pyrimidin-1-yl)piperidin-1-yl)methyl)phenyl)piperidine-2,6-dione], for which the IC50 in the experiment on TMD8 (TMD8, CCK-8, 72 hours) lay within 0.1 to 0.5 µM; in the experiment with SU-DHL-6 (SU-DHL-6, CCK-8, 72 hours), 0.5 to 1 µM. In experiment [1], the inhibition at 0.5 µM is 30 to 40%. Besides, the inhibition at 2 µM in [1] was in the range of 80 to 100%.

For the compound `Nc1ncnc2c1c(-c1ccc(Oc3ccccc3)cc1)nn2C1CCN(Cc2ccc(C3CCC(=O)NC3=O)c(F)c2)CC1` (stereo not shown) [GT-03508, 3-(4-((4-(4-amino-3-(4-phenoxyphenyl)-1H-pyrazolo[3,4-d]pyrimidin-1-yl)piperidin-1-yl)methyl)-2-fluorophenyl)piperidine-2,6-dione], the IC50 is 0.1 to 0.5 µM with TMD8 (TMD8, CCK-8, 72 hours) and 0.5 to 1 µM in the experiment on SU-DHL-6 (SU-DHL-6, CCK-8, 72 hours). Also, the inhibition at 0.5 µM in experiment [1] (Table II-2, CRBN binding screening, HTRF, at 0.5µM) lay within 30 to 40%. Also, the inhibition at 2 µM in experiment [1] (Table II-2, CRBN binding screening, HTRF, at 2 µM) lay in the range of 60 to 80%.

In the case of `Nc1ncnc2c1c(-c1ccc(Oc3ccccc3)cc1)nn2[C@H]1CCN(Cc2ccc(C3CCC(=O)NC3=O)c(F)c2)C[C@H]1F` (stereo partly drawn) [GT-03513, 3-(4-(((3R,4S)-4-(4-amino-3-(4-phenoxyphenyl)-1H-pyrazolo[3,4-d]pyrimidin-1-yl)-3-fluoropiperidin-1-yl)methyl)-2-fluorophenyl)piperidine-2,6-dione], the IC50 lay within 0.1 to 0.5 µM in the experiment on TMD8 (TMD8, CCK-8, 72 hours) and 0.1 to 0.5 µM in the experiment on SU-DHL-6 (SU-DHL-6, CCK-8, 72 hours).

In the case of `Nc1ncnc2c1c(-c1ccc(Oc3ccccc3)cc1)nn2[C@H]1CCN(Cc2ccc(C3CCC(=O)NC3=O)cc2)C[C@H]1F` (stereo partly drawn) [GT-03542, 3-(4-(((3R,4S)-4-(4-amino-3-(4-phenoxyphenyl)-1H-pyrazolo[3,4-d]pyrimidin-1-yl)-3-fluoropiperidin-1-yl)methyl)phenyl)piperidine-2,6-dione], in the experiment on TMD8 (TMD8, CCK-8, 72 hours), the IC50 was in the range of 0.1 to 0.5 µM. Further, the IC50 in the experiment on SU-DHL-6 (SU-DHL-6, CCK-8, 72 hours) is 0.1 to 0.5 µM. For the same compound, in experiment [1], the inhibition at 0.5 µM lay in the range of 20 to 30% and the inhibition at 2 µM lay within 80 to 100%.

`CC1(C)CCC(c2ccc(Cl)cc2)=C(CN2CCN(c3ccc(C(=O)NS(=O)(=O)c4ccc(N[C@H](CCN5CCN(Cc6ccc(C7CCC(=O)NC7=O)cc6)CC5)CSc5ccccc5)c(S(=O)(=O)C(F)(F)F)c4)cc3)CC2)C1` (stereo partly drawn) [GT-04151, 4-(4-((4'-chloro-4,4-dimethyl-3,4,5,6-tetrahydro-[1,1'-biphenyl]-2-yl)methyl)piperazin-1-yl)-N-((4-(((2R)-4-(4-(4-(2,6-dioxopiperidin-3-yl)benzyl)piperazin-1-yl)-1-(phenylthio)butan-2-yl)amino)-3-((trifluoromethyl)sulfonyl)phenyl)sulfonyl)benzamide]: the IC50 with LNcap was 0.01 to 0.05 µM; in the experiment on LS174T, 0.05 to 0.1 µM; in the experiment with TMD8 (TMD8, CCK-8, 72 hours), 0.001 to 0.01 µM; with CCRF-CEM, below 0.001 µM; in the experiment on THP-1 it was 0.001 to 0.01 µM; with SW620 (SW-620, CCK-8, 96 hours), 0.01 to 0.05 µM. Moreover, the IC50 in the experiment with Jurkat was 0.001 to 0.01 µM.

Turning to `CC1(C)CCC(c2ccc(Cl)cc2)=C(CN2CCN(c3ccc(C(=O)NS(=O)(=O)c4ccc(N[C@H](CCN5CCN(Cc6ccc(C7CCC(=O)NC7=O)c(F)c6)CC5)CSc5ccccc5)c(S(=O)(=O)C(F)(F)F)c4)cc3)CC2)C1` (stereo partly drawn) [GT-04152, 4-(4-((4'-chloro-4,4-dimethyl-3,4,5,6-tetrahydro-[1,1'-biphenyl]-2-yl)methyl)piperazin-1-yl)-N-((4-(((2R)-4-(4-(4-(2,6-dioxopiperidin-3-yl)-3-fluorobenzyl)piperazin-1-yl)-1-(phenylthio)butan-2-yl)amino)-3-((trifluoromethyl)sulfonyl)phenyl)sulfonyl)benzamide], the IC50 in the experiment with LNcap was 0.05 to 0.1 µM; in the experiment on LS174T, 0.05 to 0.1 µM; in the experiment on TMD8 (TMD8, CCK-8, 72 hours), 0.001 to 0.01 µM; in the experiment on CCRF-CEM it was 0.001 to 0.01 µM; with THP-1, 0.01 to 0.05 µM; in the experiment on SW620 (SW-620, CCK-8, 96 hours) it was 0.001 to 0.01 µM. For the same compound, the IC50 in the experiment with Jurkat lay in the range of 0.001 to 0.01 µM.

With `CC1(C)CCC(c2ccc(Cl)cc2)=C(CN2CCN(c3ccc(C(=O)NS(=O)(=O)c4ccc(N[C@H](CCN5CCN(Cc6cccc(N7CCC(=O)NC7=O)c6)CC5)CSc5ccccc5)c(S(=O)(=O)C(F)(F)F)c4)cc3)CC2)C1` [GT-04278, (R)-4-(4-((4'-chloro-4,4-dimethyl-3,4,5,6-tetrahydro-[1,1'-biphenyl]-2-yl)methyl)piperazin-1-yl)-N-((4-((4-(4-(3-(2,4-dioxotetrahydropyrimidin-1(2H)-yl)benzyl)piperazin-1-yl)-1-(phenylthio)butan-2-yl)amino)-3-((trifluoromethyl)sulfonyl)phenyl)sulfonyl)benzamide], the IC50 fell in the range of 0.1 to 0.5 µM in the experiment on LNcap; 0.5 to 1 µM in the experiment with LS174T; 0.01 to 0.05 µM in the experiment with TMD8 (TMD8, CCK-8, 72 hours); 0.001 to 0.01 µM in the experiment on CCRF-CEM; 0.01 to 0.05 µM in the experiment on THP-1; 0.1 to 0.5 µM in the experiment on SW620 (SW-620, CCK-8, 96 hours). For the same compound, the IC50 in the experiment on Jurkat was in the range of 0.01 to 0.05 µM.

For the compound `CC1(C)CCC(c2ccc(Cl)cc2)=C(CN2CCN(c3ccc(C(=O)NS(=O)(=O)c4ccc(N[C@H](CCN5CCN(Cc6cccc(NC7CCC(=O)NC7=O)c6)CC5)CSc5ccccc5)c(S(=O)(=O)C(F)(F)F)c4)cc3)CC2)C1` (stereo partly drawn) [GT-04279, 4-(4-((4'-chloro-4,4-dimethyl-3,4,5,6-tetrahydro-[1,1'-biphenyl]-2-yl)methyl)piperazin-1-yl)-N-((4-(((2R)-4-(4-(3-((2,6-dioxopiperidin-3-yl)amino)benzyl)piperazin-1-yl)-1-(phenylthio)butan-2-yl)amino)-3-((trifluoromethyl)sulfonyl)phenyl)sulfonyl)benzamide], the IC50 in the experiment with LNcap lay in the range of 0.05 to 0.1 µM; in the experiment on LS174T, 0.1 to 0.5 µM; in the experiment with TMD8 (TMD8, CCK-8, 72 hours) it was 0.01 to 0.05 µM; in the experiment on CCRF-CEM it was 0.001 to 0.01 µM; in the experiment with THP-1 it was 0.01 to 0.05 µM; in the experiment on SW620 (SW-620, CCK-8, 96 hours), 0.05 to 0.1 µM. For the same compound, the IC50 with Jurkat is 0.01 to 0.05 µM.

On to `C=CC(=O)N1CCC[C@@H](n2nc(-c3ccc(Oc4ccccc4)cc3)c3c(N)ncnc32)C1` [ibrutinib, Ibrutinib, reference compound], for which the IC50 in the experiment on H2228 was above 10 µM; in the experiment on MM.1R, above 10 µM; in the experiment on TMD8 (TMD8, 72 h) it was above 10 µM; in the experiment on SU-DHL-6 (SU-DHL-6, 72 h) it was 0.1 to 0.5 µM; with PC-9, 0.1 to 0.5 µM; in the experiment on SW620 (SW-620, 96 h), above 10 µM. Besides, the IC50 in the experiment with H1975 lay in the range of 0.5 to 1 µM.
